PubChem BioAssay (NCI)
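Test compounds were applied to cells in 96-well plates for 48 hours at 5 doses. TGI is the concentration that stops growth completely.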

What was measured:
Assay in all cases: growth of human tumour cells (NCI), 48 h
BT-549 breast = system: BT-549 breast
COLO 205 colon = system: COLO 205 colon
LOX IMVI melanoma = system: LOX IMVI melanoma
OVCAR-4 ovarian = system: OVCAR-4 ovarian
OVCAR-5 ovarian = system: OVCAR-5 ovarian
SF-268 CNS = system: SF-268 CNS
SNB-75 CNS = system: SNB-75 CNS
U251 CNS = system: U251 CNS
UACC-257 melanoma = system: UACC-257 melanoma
UACC-62 melanoma = system: UACC-62 melanoma

| SMILES | TGI (BT-549 breast) [µM] | TGI (COLO 205 colon) [µM] | TGI (LOX IMVI melanoma) [µM] | TGI (OVCAR-4 ovarian) [µM] | TGI (OVCAR-5 ovarian) [µM] | TGI (SF-268 CNS) [µM] | TGI (SNB-75 CNS) [µM] | TGI (U251 CNS) [µM] | TGI (UACC-257 melanoma) [µM] | TGI (UACC-62 melanoma) [µM] |
| --- | --- | --- | --- | --- | --- | --- | --- | --- | --- | --- |
| COC(=O)c1sc2ncc3c(c2c1N)CCCCCC3 | > 100 | > 100 | > 100 | > 100 | > 100 | > 100 | > 100 | > 100 | > 100 | > 100 |
| CC(C)c1cc(CN(C)C)c(O)c(C(C)(C)C)c1 | > 100 | 36.7 | 32.5 | 99.1 | > 100 | 58.4 |  | 30 | 29.2 | > 100 |
| COc1ccc2nc3ccc(OC)cc3c(SCc3ccc([N+](=O)[O-])cc3)c2c1 |  | > 100 | > 100 | 69.6 | > 100 | > 100 | > 100 |  | > 100 | > 100 |
| CN(CCCCN1CCCC1)CCCN(C)C(=O)Cc1ccc(Cl)c(Cl)c1 | 32.5 | 28.9 | 27.9 | 53.8 | 57.8 | > 100 | 47.5 | 32.4 | 13.5 | 16.9 |
| COc1c(C)c2c(c(=O)c3c(C)cccc3n2C)c2c1c(=O)c1c(C)cccc1n2C | > 10 | > 10 | > 10 | > 10 | > 10 | > 10 | > 10 | > 10 | > 10 | > 10 |
| CN(C)c1ccc(/C=c2/c3ccccc3n3nc4ccccc4c23)cc1 | 71.5 | 50.9 | > 100 |  | > 100 | > 100 | 27.7 | > 100 | > 100 | > 100 |
| Cc1nc(Nc2ccccc2Cl)sc1C(=O)CC(=O)C(=O)Nc1c(Cl)cccc1Cl | 86.2 | 38.7 | 85.8 | > 100 | > 100 | > 100 | 88.6 | 64.3 | > 100 | > 100 |
| Nc1ccc2nc(Nc3ccc(F)cc3)cnc2c1 |  | > 100 | > 100 | > 100 | > 100 | > 100 | > 100 |  | > 100 |  |
| c1ccc(N=C(Nc2ccccc2)N2CCCCC2)cc1 | > 100 | > 100 | > 100 | > 100 | > 100 | > 100 | > 100 | > 100 | 68.9 | > 100 |
| [O-][n+]1onc2c1CCC(=N\O)/C2=N/Nc1ccccc1 |  | > 100 | > 100 | > 100 | > 100 | > 100 | > 100 |  | > 100 | > 100 |
| Oc1cc(Br)cc2cccnc12 | 98 | 34.8 |  | > 65.3 | > 100 | > 42.2 | > 91.5 | > 58.4 | 6.93 | 7.81 |
| O=C(CC(C(=O)c1cccs1)c1ccsc1)c1cccs1 (centres undefined) | > 100 | > 100 |  | > 100 | > 100 | > 100 | > 100 | > 100 | > 100 | > 100 |
| O=C1C(N2CCNCC2)=C(Cl)C(=O)c2ncccc21 | > 10 | > 10 |  | > 10 | > 10 | > 10 | > 10 | > 10 | > 10 | > 10 |
| COc1cc(C)c(/C=C/C(=O)N2C(=O)OC[C@@H]2c2ccccc2)c(C)c1 |  | > 100 | > 100 | > 100 | > 100 | > 100 | > 100 | > 100 | > 100 |  |
| CCOC(=O)C(/C=N\C(=S)Nc1ccc(Cl)c(Cl)c1)=C(/O)c1ccccc1 |  | > 100 | > 100 | > 100 | > 100 | > 100 | 55.9 | > 100 | > 100 | > 100 |
| N=C(N)N1CCC(N2CCOCC2)CC1 |  | > 100 |  | > 100 | > 100 | > 100 | > 100 | > 100 | > 100 | > 100 |
| CC(C)CC1C(=O)NCCC(NC(=O)C(N)Cc2ccc(O)cc2)C(=O)NC(Cc2ccccc2)C(=O)NC(Cc2ccccc2)NC1=O (centres undefined) |  | > 100 | > 100 | > 100 | > 100 | > 100 | > 100 | > 100 | > 100 | > 100 |
| CNC(=O)c1n[nH]nc1Sc1c([N+](=O)[O-])ncn1C | > 100 | > 100 | > 100 | > 100 | > 100 | > 100 |  | > 100 | > 100 | > 100 |
| CS/C1=C(\c2ccc(C)cc2)N(c2ccccc2)C(=O)C(=O)N(c2ccccc2)/C(c2ccc(C)cc2)=C(/SC)SS1 |  | > 100 | > 100 | > 100 | > 100 | > 100 | > 100 | > 100 | > 100 | > 100 |
| O=C(CC(C(=O)c1ccco1)c1ccsc1)c1ccco1 (centres undefined) |  | > 100 | > 100 | > 100 | > 100 | > 100 | > 100 | > 100 | > 100 | > 100 |
| CSc1nc(Cl)c(Br)c(Sc2nc(N)nc3nc[nH]c23)n1 |  | 33.8 |  | 23.3 | 24.1 | 14.9 | 9.74 | 16.4 | 30 | 14.2 |
| O=C(O)CN1CCN2CCOCCOCCN(CC1)CCN(CC(=O)O)CC2 | > 100 | > 100 | > 100 | > 100 | > 100 |  | > 100 | > 100 | > 100 | > 100 |
| Cc1ccc2c(=O)c3cccc(CC(=O)O)c3[nH]c2c1C | > 100 | > 100 | > 100 | > 100 |  | 90.5 |  | > 100 | > 100 | > 100 |
